Patent publication US10363251B2, “(+)-morphinans as antagonists of toll-like receptor 9 and therapeutic uses thereof” (Mallinckrodt LLC, priority 2009, dated 2019)

Columns and labels:
[1] = target: T1, TLR5 (Homo sapiens, UniProt O60602); test: TLR5 antagonist screening, NF-κB-inducible SEAP reporter in HEK293 cells; assay type: cell-based; conditions: for Average % Inhibition at TLR5: 10 μM, stimulated with Flagellin at 100 ng/ml
T1 construct: expressed in transfected cells; host or cells: HEK293
Method: (§1) Stimulation of TLRs 2, 3, 4, 5, 7, 8, and 9 was determined by assessing activation of the transcription factor NF-κB in HEK293 cells that were engineered to express the corresponding receptors. Assessment of TLR stimulation was based on the use of an NF-κB-inducible secreted alkaline phosphatase (SEAP) reporter system in which the SEAP reporter was under the control of a promoter inducible by NF-κB. Thus, the degree of activation of TLRs can be indirectly quantified spectrophotometrically by measuring the amount of the SEAP reporter that is produced.
(§2) The appropriate TLR-expressing cells were plated in Growth Medium in a 96-well plate (25,000-50,000 cells/well). The cells were stimulated with the appropriate positive control ligand or no ligand was added (negative control). The positive control ligands were: HKLM was used to stimulate TLR2; poly(I:C) was used to stimulate TLR3; LPS was used to stimulate TLR4; Flagellin was used to stimulate TLR5; CL097 was used to stimulate TLR7; CL075 was used to stimulate TLR8; CpG oligodeoxynucleotide (ODN) 2006 was used to stimulate TLR9. To test whether (+)-morphinans could block that activation of the TLR, the cells were pretreated with an antagonist for 30 minutes prior to addition of the positive control ligand. For this, 20 μL of the stock test compound solution (100 μM in H2O) was added to give a total volume of 200 μL. […] After a 16-20 hr incubation period at 37° C. in a CO2 incubator, 20 μL of the cell culture supernatant was added to 180 μL of QUANTI-Blue™ Media (InvivoGen, San Diego, Calif.), and the resulting solutions were incubated at 37° C. for an additional 1-3 hours according to the manufacturer's instructions. The OD's of the samples were then read at 650 nm on a Beckman Coulter AD 340C Absorbance Detector.

[2] = target: T2, TLR8 (Homo sapiens, UniProt Q9NR97); test: TLR8 antagonist screening, NF-κB-inducible SEAP reporter in HEK293 cells; assay type: cell-based; conditions: for Average % Inhibition at TLR8: 10 μM, stimulated with CL075 at 1 μg/ml
T2 construct: expressed in transfected cells; host or cells: HEK293
T2 sequence (Q9NR97 27-1041): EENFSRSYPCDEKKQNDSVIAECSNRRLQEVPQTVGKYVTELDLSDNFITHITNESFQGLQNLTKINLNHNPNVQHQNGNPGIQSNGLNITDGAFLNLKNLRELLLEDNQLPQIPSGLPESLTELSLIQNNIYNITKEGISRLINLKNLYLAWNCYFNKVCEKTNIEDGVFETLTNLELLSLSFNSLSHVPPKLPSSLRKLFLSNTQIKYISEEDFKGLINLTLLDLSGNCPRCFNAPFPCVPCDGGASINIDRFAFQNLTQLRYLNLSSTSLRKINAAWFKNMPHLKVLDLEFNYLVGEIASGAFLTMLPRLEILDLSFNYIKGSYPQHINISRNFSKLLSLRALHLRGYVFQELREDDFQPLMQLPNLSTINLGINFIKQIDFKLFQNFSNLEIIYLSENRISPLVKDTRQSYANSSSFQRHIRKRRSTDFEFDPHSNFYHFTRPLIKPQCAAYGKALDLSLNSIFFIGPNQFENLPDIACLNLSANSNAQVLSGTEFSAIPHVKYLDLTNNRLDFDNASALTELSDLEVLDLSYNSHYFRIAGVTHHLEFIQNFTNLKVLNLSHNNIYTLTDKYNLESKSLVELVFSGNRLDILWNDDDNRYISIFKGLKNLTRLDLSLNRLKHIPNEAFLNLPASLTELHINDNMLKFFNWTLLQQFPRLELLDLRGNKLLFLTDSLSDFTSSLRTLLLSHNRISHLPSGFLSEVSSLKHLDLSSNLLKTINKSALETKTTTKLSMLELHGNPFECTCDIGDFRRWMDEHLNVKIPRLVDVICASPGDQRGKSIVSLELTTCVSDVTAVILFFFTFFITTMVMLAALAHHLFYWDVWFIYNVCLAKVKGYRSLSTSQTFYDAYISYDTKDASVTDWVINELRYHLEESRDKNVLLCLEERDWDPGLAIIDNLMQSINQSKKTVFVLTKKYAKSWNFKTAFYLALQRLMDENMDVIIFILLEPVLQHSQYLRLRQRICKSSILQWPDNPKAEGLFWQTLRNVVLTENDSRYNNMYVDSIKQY
Method: as §1
as §2, with “ligand.” for “ligand. For this, 20 μL of the stock test compound solution (100 μM in H2O) was added to give a total volume of 200 μL.”

T1 sequence (O60602 21-858, species assumed): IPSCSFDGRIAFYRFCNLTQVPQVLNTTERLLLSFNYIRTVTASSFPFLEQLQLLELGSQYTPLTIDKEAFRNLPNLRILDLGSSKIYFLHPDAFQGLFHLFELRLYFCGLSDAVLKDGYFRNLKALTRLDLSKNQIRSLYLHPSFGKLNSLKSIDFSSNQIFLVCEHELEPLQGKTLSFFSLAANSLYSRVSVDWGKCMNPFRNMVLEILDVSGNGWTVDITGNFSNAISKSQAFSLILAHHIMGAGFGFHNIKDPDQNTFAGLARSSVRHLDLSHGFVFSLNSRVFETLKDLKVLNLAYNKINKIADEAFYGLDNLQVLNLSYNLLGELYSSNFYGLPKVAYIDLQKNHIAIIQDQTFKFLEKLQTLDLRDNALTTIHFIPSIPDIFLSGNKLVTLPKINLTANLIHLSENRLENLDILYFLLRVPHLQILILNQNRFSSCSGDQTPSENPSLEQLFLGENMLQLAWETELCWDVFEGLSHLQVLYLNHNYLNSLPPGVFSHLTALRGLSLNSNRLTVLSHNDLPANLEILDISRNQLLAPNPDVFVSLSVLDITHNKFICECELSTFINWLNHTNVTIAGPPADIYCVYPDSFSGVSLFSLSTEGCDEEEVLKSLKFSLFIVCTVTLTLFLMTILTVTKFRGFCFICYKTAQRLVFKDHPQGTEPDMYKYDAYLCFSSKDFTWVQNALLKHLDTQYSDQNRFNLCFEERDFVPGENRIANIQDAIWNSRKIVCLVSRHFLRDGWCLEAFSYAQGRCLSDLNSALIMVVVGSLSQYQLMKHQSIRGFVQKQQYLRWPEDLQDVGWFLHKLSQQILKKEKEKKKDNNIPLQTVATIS

SMILES | Average % Inhibition at TLR5 [1] [%] | Average % Inhibition at TLR8 [2] [%] | inhibition at 10 µM ([1]; HEK293, stimulated with Flagellin at 100 ng/ml) [%] | inhibition at 10 µM ([2]; HEK293, stimulated with CL075 at 1 μg/ml) [%]
C=CCN1CC[C@]23c4c5ccc(O)c4O[C@H]2C(=O)CC[C@]3(O)[C@H]1C5 [(+)-Naloxone, (+)-naloxone] | 17 | 24 |  | 
COc1ccc2c(c1O)[C@@]13CCN(C)[C@@H](C2)[C@H]1CC(OC)C(=O)C3 (stereo partly drawn) [Dihydrosinomenine, dihydrosinomenine] | 16 | 21 |  | 
COC1=C[C@@H]2[C@@H]3Cc4ccc(OC)c(O)c4[C@]2(CCN3C)CC1=O [Sinomenine, sinomenine] |  |  | 19 | 20
